Results published in ChEMBL document CHEMBL6078723, “Novel steroidal β-carboline derivatives as promising antibacterial candidates against methicillin-resistant Staphylococcus aureus” (Eur J Med Chem, 2025).
The source made the active and inactive calls. No cut-off for these calls is given here.

What was measured:
Staphylococcus aureus [1] = test: Antibacterial activity against methicillin-resistant Staphylococcus aureus CGMCC1.12409 infected in mouse model assessed as reduction in bacterial clones at 5 to 10 mg/kg measured for 5 days; assay type: functional, organism-based; conditions: dose 5-10 mg/kg, time 5.0 day
Staphylococcus aureus [2] = test: Antibacterial activity against methicillin-resistant Staphylococcus aureus ATCC 43300; assay type: functional
Staphylococcus aureus [3] = test: Induction of inner membrane permeability in Staphylococcus aureus CGMCC1.8721 assessed as increase in red fluorescence intensity by PI staining based analysis; assay type: functional, organism-based
Staphylococcus aureus [4] = test: Antibacterial activity against methicillin-resistant Staphylococcus aureus CGMCC1.12409 infected in mouse model assessed as smooth dorsal skin at 10 mg/kg measured for 5 days; assay type: functional, organism-based; conditions: route sc, time 5.0 day
Staphylococcus aureus [5] = test: Bactericidal activity against Staphylococcus aureus CGMCC1.8721 by CLSI based method; assay type: functional
Staphylococcus aureus [6] = test: Induction of loss of membrane integrity in Staphylococcus aureus CGMCC1.8721 assessed as protein leakage; assay type: functional, organism-based
Staphylococcus aureus [7] = test: Antibacterial activity against methicillin-resistant Staphylococcus aureus CGMCC1.12409 at 36.5 degreeC (reference value: 0.5 ug/ml); assay type: functional
Staphylococcus aureus [8] = test: Induction of morphological change in Staphylococcus aureus CGMCC1.8721 assessed as leakage of intracellular components at 4 times MIC by […] SEM analysis; assay type: functional, organism-based
Staphylococcus aureus [9] = test: Antibiofilm activity against Staphylococcus aureus CGMCC1.8721 at 4 times MIC by crystal violet staining based analysis relative to control; assay type: functional
Staphylococcus aureus [10] = test: Antibacterial activity against methicillin-resistant Staphylococcus aureus ATCC 33591 in presence of Zn2+ (reference value: 1 ug/ml); assay type: functional
Staphylococcus aureus [11] = test: Antibacterial activity against Staphylococcus aureus CGMCC1.8721 in presence of phosphatidylglycerol; assay type: functional, organism-based
Staphylococcus aureus [12] = test: Antibacterial activity against methicillin-resistant Staphylococcus aureus CGMCC1.12409 in presence of K+ (reference value: 0.5 ug/ml); assay type: functional
Staphylococcus aureus [13] = test: Antibacterial activity against Staphylococcus aureus CGMCC1.8721 in presence of phosphatidylethanolamine; assay type: functional, organism-based
Staphylococcus aureus [14] = test: Antibacterial activity against Staphylococcus aureus CGMCC1.8721; assay type: functional
Staphylococcus aureus [15] = test: Antibacterial activity against Staphylococcus aureus CGMCC1.8721 in presence of Mg2+ (reference value: 0.5 ug/ml); assay type: functional
Staphylococcus aureus [16] = test: Induction of resistance development in Staphylococcus aureus CGMCC1.8721 at sub-lethal concentration following serial passages for 30 days; assay type: functional, organism-based; conditions: time 30.0 day
Staphylococcus aureus [17] = test: Antibacterial activity against Staphylococcus aureus CGMCC1.8721 at 37.5 degreeC (reference value: 0.5 ug/ml); assay type: functional
Staphylococcus aureus [18] = test: Antibacterial activity against methicillin-resistant Staphylococcus aureus ATCC 33591; assay type: functional
Staphylococcus aureus [19] = test: Antibacterial activity against Staphylococcus aureus CGMCC1.8721 in presence of K+ (reference value: 0.5 ug/ml); assay type: functional
Staphylococcus aureus [20] = test: Antibacterial activity against Staphylococcus aureus CGMCC1.8721 at pH 6.5 (reference value: 0.5 ug/ml); assay type: functional
Staphylococcus aureus [21] = test: Bactericidal activity against Staphylococcus aureus CGMCC1.8721 at 4 to 8 times MIC incubated for 0.5 to 1 hr by time kill assay relative to control; assay type: functional; conditions: time 0.5-1 hrs
Staphylococcus aureus [22] = test: Antibacterial activity against methicillin-resistant Staphylococcus aureus ATCC 33591 in presence of Mg2+ (reference value: 1 ug/ml); assay type: functional
Staphylococcus aureus [23] = test: Antibacterial activity against methicillin-resistant Staphylococcus aureus ATCC 43300 in presence of H2PO4- (reference value: 0.5 ug/ml); assay type: functional
Staphylococcus aureus [24] = test: Antibacterial activity against methicillin-resistant Staphylococcus aureus ATCC 33591 at 37.5 degreeC (reference value: 1 ug/ml); assay type: functional
Staphylococcus aureus [25] = test: Antibacterial activity against Staphylococcus aureus CGMCC1.8721 in presence of Ca2+ (reference value: 0.5 ug/ml); assay type: functional
[26] = Selectivity index, ratio of HC50 for hemolytic activity in rabbit RBC to MIC for antibacterial activity against Staphylococcus aureus; assay type: toxicity, cell-based; conditions: rabbit red blood cells
Staphylococcus aureus [27] = test: Induction of morphological change in Staphylococcus aureus CGMCC1.8721 assessed as cell rupture at 4 times MIC by […] SEM analysis; assay type: functional, organism-based
Staphylococcus aureus [28] = test: Antibacterial activity against methicillin-resistant Staphylococcus aureus CGMCC1.12409 at 37.5 degreeC (reference value: 0.5 ug/ml); assay type: functional
Staphylococcus aureus [29] = test: Antibacterial activity against methicillin-resistant Staphylococcus aureus ATCC 33591 at 36.5 degreeC (reference value: 1 ug/ml); assay type: functional
Staphylococcus aureus [30] = test: Antibacterial activity against methicillin-resistant Staphylococcus aureus ATCC 43300 in presence of Na+ (reference value: 0.5 ug/ml); assay type: functional
Staphylococcus aureus [31] = test: Antibacterial activity against methicillin-resistant Staphylococcus aureus CGMCC1.12409 in presence of Zn2+ (reference value: 0.5 ug/ml); assay type: functional
Staphylococcus aureus [32] = test: Antibacterial activity against methicillin-resistant Staphylococcus aureus ATCC 43300 in presence of Fe3+ (reference value: 0.5 ug/ml); assay type: functional
Staphylococcus aureus [33] = test: Antibacterial activity against methicillin-resistant Staphylococcus aureus ATCC 43300 at 37.5 degreeC (reference value: 0.5 ug/ml); assay type: functional
Staphylococcus aureus [34] = test: Antibacterial activity against Staphylococcus aureus CGMCC1.8721 in presence of LTA; assay type: functional, organism-based
Staphylococcus aureus [35] = test: Antibacterial activity against methicillin-resistant Staphylococcus aureus ATCC 43300 in presence of K+ (reference value: 0.5 ug/ml); assay type: functional
Staphylococcus aureus [36] = test: Antibacterial activity against methicillin-resistant Staphylococcus aureus CGMCC1.12409 in presence of Fe2+ (reference value: 0.5 ug/ml); assay type: functional
Staphylococcus aureus [37] = test: Antibacterial activity against methicillin-resistant Staphylococcus aureus ATCC 33591 at pH 6.5 (reference value: 1 ug/ml); assay type: functional
Staphylococcus aureus [38] = test: Antibacterial activity against methicillin-resistant Staphylococcus aureus ATCC 43300 in presence of Zn2+ (reference value: 0.5 ug/ml); assay type: functional
Staphylococcus aureus [39] = test: Antibacterial activity against methicillin-resistant Staphylococcus aureus CGMCC1.12409 in presence of Fe3+ (reference value: 0.5 ug/ml); assay type: functional
Staphylococcus aureus [40] = test: Antibiofilm activity against Staphylococcus aureus CGMCC1.8721 by crystal violet staining based analysis; assay type: functional, organism-based
Staphylococcus aureus [41] = test: Antibacterial activity against methicillin-resistant Staphylococcus aureus CGMCC1.12409 in presence of Mg2+ (reference value: 0.5 ug/ml); assay type: functional
Staphylococcus aureus [42] = test: Induction of membrane depolarization in Staphylococcus aureus CGMCC1.8721 by DiSC3(5) dye based analysis; assay type: functional, organism-based
Staphylococcus aureus [43] = test: Antibacterial activity against methicillin-resistant Staphylococcus aureus CGMCC1.12409 infected in mouse model assessed as reduction in neutrophils in skin tissues at 5 to 10 mg/kg measured for 5 days by H and E staining based analysis; assay type: functional, organism-based; conditions: dose 5-10 mg/kg, time 5.0 day
Staphylococcus aureus [44] = test: Antibacterial activity against methicillin-resistant Staphylococcus aureus CGMCC1.12409 at pH 8 (reference value: 0.5 ug/ml); assay type: functional
Staphylococcus aureus [45] = test: Antibacterial activity against Staphylococcus aureus CGMCC1.8721 at 36.5 degreeC (reference value: 0.5 ug/ml); assay type: functional

COc1ccc2[nH]c3c(CC[C@H](C)[C@H]4CC[C@H]5[C@@H]6[C@H](O)C[C@@H]7C[C@H](O)CC[C@]7(C)[C@H]6C[C@H](O)[C@]45C)[n+](Cc4ccc(Cl)cc4)ccc3c2c1.[Br-]
Activity (Staphylococcus aureus [1]): Active
MIC (Staphylococcus aureus [2]): 0.5 µg/mL
Activity (Staphylococcus aureus [3]): Dose-dependent-effect
Activity (Staphylococcus aureus [4]): Active
MBC (Staphylococcus aureus [5]): 1 µg/mL
Activity (Staphylococcus aureus [6]): Dose-dependent-effect
MIC (Staphylococcus aureus [7]): 0.5 µg/mL
Activity (Staphylococcus aureus [8]): Active
Activity (Staphylococcus aureus [9]): ~87%
MIC (Staphylococcus aureus [10]): 1 µg/mL
Activity (Staphylococcus aureus [11]): inactive
MIC (Staphylococcus aureus [12]): 1 µg/mL
Activity (Staphylococcus aureus [13]): Active
MIC (Staphylococcus aureus [14]): 0.5 µg/mL
MIC (Staphylococcus aureus [15]): 0.5 µg/mL
Activity (Staphylococcus aureus [16]): inactive
MIC (Staphylococcus aureus [17]): 0.5 µg/mL
MIC (Staphylococcus aureus [18]): 1 µg/mL
MIC (Staphylococcus aureus [19]): 0.5 µg/mL
MIC (Staphylococcus aureus [20]): 0.5 µg/mL
Activity (Staphylococcus aureus [21]): 100%
MIC (Staphylococcus aureus [22]): 1 µg/mL
MIC (Staphylococcus aureus [23]): 0.5 µg/mL
MIC (Staphylococcus aureus [24]): 1 µg/mL
MIC (Staphylococcus aureus [25]): 0.5 µg/mL
selectivity ratio [26]: > 256
Activity (Staphylococcus aureus [27]): Active
MIC (Staphylococcus aureus [28]): 0.5 µg/mL
MIC (Staphylococcus aureus [29]): 1 µg/mL
MIC (Staphylococcus aureus [30]): 0.5 µg/mL
MIC (Staphylococcus aureus [31]): 1 µg/mL
MIC (Staphylococcus aureus [32]): 0.5 µg/mL
MIC (Staphylococcus aureus [33]): 0.5 µg/mL
Activity (Staphylococcus aureus [34]): Active
MIC (Staphylococcus aureus [35]): 0.5 µg/mL
MIC (Staphylococcus aureus [36]): 1 µg/mL
MIC (Staphylococcus aureus [37]): 1 µg/mL
MIC (Staphylococcus aureus [38]): 0.5 µg/mL
MIC (Staphylococcus aureus [39]): 1 µg/mL
Activity (Staphylococcus aureus [40]): Dose-dependent-effect
MIC (Staphylococcus aureus [41]): 1 µg/mL
Activity (Staphylococcus aureus [42]): Dose-dependent-effect
Activity (Staphylococcus aureus [43]): Active
MIC (Staphylococcus aureus [44]): 1 µg/mL
MIC (Staphylococcus aureus [45]): 0.5 µg/mL
